What is called IC50 is the concentration at which inhibition is half-maximal. Read a high IC50 as weaker potency.

human c-MER catalytic domain, sequence (Q12866 587-858): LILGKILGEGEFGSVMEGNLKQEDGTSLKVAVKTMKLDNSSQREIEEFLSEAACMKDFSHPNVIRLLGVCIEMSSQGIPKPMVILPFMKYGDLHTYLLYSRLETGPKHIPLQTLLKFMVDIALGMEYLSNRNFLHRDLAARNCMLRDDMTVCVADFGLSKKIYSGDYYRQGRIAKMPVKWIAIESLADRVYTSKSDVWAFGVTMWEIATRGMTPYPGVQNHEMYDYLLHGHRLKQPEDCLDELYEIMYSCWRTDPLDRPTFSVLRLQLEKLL

This assay has as its target human c-MER catalytic domain (Homo sapiens (Human), UniProt Q12866). Nature of the assay: TR-FRET Kinase Activity Biochemical Assay (LanthaScreen). The conditions noted are these: 10 uM ATP, 1 hour, kinase not given. An outline of the steps:
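Activity was quantified as the ratio of 495 nm to 520 nm emission (excitation 340 nm) in a LanthaScreen TR-FRET format. The enzyme was the human c-MER catalytic domain, and the substrate was fluorescein-poly-GT. Detection used 2 nM Tb anti-phosphotyrosine antibody for 30 min after termination with 10 mM EDTA.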
Turning to `Cn1cc(-c2cnc(N)c(C(=O)N[C@@H]3CCN(C(=O)O[C@H]4CCN(c5ccccc5)C4)C3)c2)cn1` [Example 128, (S)-1-phenylpyrrolidin-3-yl (R)-3-(2-amino-5-(1-methyl-1H-pyrazol-4-yl)nicotinamido)pyrrolidine-1-carboxylate], the IC50 fell in the range of 100 to 1000 nM.

`CN1CCN(Cc2ccc(-c3cc(Cl)cc(OC(=O)N4CC[C@@H](NC(=O)c5cc(-c6cnn(C)c6)cnc5N)C4)c3)cc2)CC1` [Example 292, 5-chloro-4′-((4-methylpiperazin-1-yl)methyl)-[1,1′-biphenyl]-3-yl (R)-3-(2-amino-5-(1-methyl-1H-pyrazol-4-yl)nicotinamido)pyrrolidine-1-carboxylate] returned an IC50 of less than 10 nM.

Take `Cn1cc(-c2cnc(N)c(C(=O)N[C@@H]3CCN(C(=O)Oc4cccc(-c5cccc(CN6CCCNCC6)c5)c4)C3)c2)cn1` [Example 341, 3′-((1,4-diazepan-1-yl)methyl)-[1,1′-biphenyl]-3-yl (R)-3-(2-amino-5-(1-methyl-1H-pyrazol-4-yl)nicotinamido)pyrrolidine-1-carboxylate]: the IC50 was in the range of 10 to 100 nM.

As for `CCc1ccccc1NC(=O)N1CC[C@@H](NC(=O)c2cc(-c3cnn(C)c3)cnc2N)C1` [Example 20, (R)-2-amino-N-(1-((2-ethylphenyl)carbamoyl)pyrrolidin-3-yl)-5-(1-methyl-1H-pyrazol-4-yl)nicotinamide], the IC50 is more than 1000 nM.

On to `Nc1ncc(-c2ccc(N3CCOCC3)cc2)cc1C(=O)N[C@@H]1CCN(C(=O)c2ccc(-c3ccccc3Cl)cc2)C1` [Example 571, (R)-2-amino-N-(1-(2′-chloro-[1,1′-biphenyl]-4-carbonyl)pyrrolidin-3-yl)-5-(4-morpholinophenyl)nicotinamide], for which the IC50 lay within 10 to 100 nM.

Turning to `Cn1cc(-c2cnc(N)c(C(=O)N[C@@H]3CCN(C(=O)Oc4cccc(-c5ccc(CN6CCOCC6)cc5)c4)C3)c2)cn1` [Example 335, 4′-(morpholinomethyl)-[1,1′-biphenyl]-3-yl (R)-3-(2-amino-5-(1-methyl-1H-pyrazol-4-yl)nicotinamido)pyrrolidine-1-carboxylate], the IC50 lay within 100 to 1000 nM.

For `Cn1cc(-c2cnc(N)c(C(=O)N[C@H]3CCCN(C(=O)c4ccc(-c5ccccc5)cc4)C3)c2)cn1` [Example 348, (S)—N-(1-([1,1′-biphenyl]-4-carbonyl)piperidin-3-yl)-2-amino-5-(1-methyl-1H-pyrazol-4-yl)nicotinamide], the IC50 was more than 1000 nM.

Take `COc1cc(NC(=O)N2CC[C@@H](NC(=O)c3cc(-c4cnn(C)c4)cnc3N)C2)cc(OC)c1OC` [Example 35, (R)-2-amino-5-(1-methyl-1H-pyrazol-4-yl)-N-(1-((3,4,5-trimethoxyphenyl)carbamoyl)pyrrolidin-3-yl)nicotinamide]: the IC50 lay in the range of 100 to 1000 nM.

In turn, `Cn1cc(-c2cnc(N)c(C(=O)N[C@@H]3CCN(C(=O)c4ccc(CCBr)cc4)C3)c2)cn1` [Example 413, (R)-2-amino-N-(1-(4-(2-bromoethyl)benzoyl)pyrrolidin-3-yl)-5-(1-methyl-1H-pyrazol-4-yl)nicotinamide] came in with an IC50 of more than 1000 nM.

`Cc1nn(-c2ccc(N)cc2)c(C)c1-c1ccc(C(=O)N2CC[C@@H](NC(=O)c3cc(-c4cnn(C)c4)cnc3N)C2)cc1` [Example 520, (R)-2-amino-N-(1-(4-(1-(4-aminophenyl)-3,5-dimethyl-1H-pyrazol-4-yl)benzoyl)pyrrolidin-3-yl)-5-(1-methyl-1H-pyrazol-4-yl)nicotinamide]: the IC50 lay within 100 to 1000 nM.

For `Cn1cc(-c2cnc(N)c(C(=O)N[C@H]3CN(C(=O)c4ccc(Br)cc4)C[C@@H]3O)c2)cn1` [Example 732, 2-amino-N-((3S,4S)-1-(4-bromobenzoyl)-4-hydroxypyrrolidin-3-yl)-5-(1-methyl-1H-pyrazol-4-yl)nicotinamide], the IC50 was more than 1000 nM.

The compound `Cn1cc(-c2cnc(N)c(C(=O)N[C@@H]3CCN(C(=O)Oc4cccc(-c5ccccc5)c4)C3)c2)cn1` [Example 117, [1,1′-biphenyl]-3-yl (R)-3-(2-amino-5-(1-methyl-1H-pyrazol-4-yl)nicotinamido)pyrrolidine-1-carboxylate] showed an IC50 of 10 to 100 nM.

`CN1CCN(Cc2ccc(-c3cnc(N)c(C(=O)N[C@@H]4CCN(C(=O)Nc5cccc(-c6ccccc6)c5)C4)c3)cc2)CC1` [Example 37, (R)—N-(1-([1,1′-biphenyl]-3-ylcarbamoyl)pyrrolidin-3-yl)-2-amino-5-(4-((4-methylpiperazin-1-yl)methyl)phenyl)nicotinamide] yielded an IC50 of 10 to 100 nM.

On to `Cn1cc(-c2cnc(N)c(C(=O)N[C@@H]3CCN(C(=O)c4ccc(-c5ccc(Nc6ccc(N)cc6)cc5)cc4)C3)c2)cn1` [Example 815, (R)-2-amino-N-(1-(4′-((4-aminophenyl)amino)-[1,1′-biphenyl]-4-carbonyl)pyrrolidin-3-yl)-5-(1-methyl-1H-pyrazol-4-yl)nicotinamide], for which the IC50 was in the range of 10 to 100 nM.

On to `Cn1cc(-c2cnc3[nH]nc(N[C@@H]4CCN(C(=O)c5ccc(-c6ccc(CN7CCOCC7)cc6)cc5)C4)c3c2)cn1` [Example 793, (R)-(3-((5-(1-methyl-1H-pyrazol-4-yl)-1H-pyrazolo[3,4-b]pyridin-3-yl)amino)pyrrolidin-1-yl)(4′-(morpholinomethyl)-[1,1′-biphenyl]-4-yl)methanone], for which the IC50 lay in the range of 100 to 1000 nM.

For `Cn1cc(-c2cnc(N)c(C(=O)N[C@@H]3CCN(C(=O)O[C@@H]4CCN(c5ccccc5)C4)C3)c2)cn1` [Example 127, (R)-1-phenylpyrrolidin-3-yl (R)-3-(2-amino-5-(1-methyl-1H-pyrazol-4-yl)nicotinamido)pyrrolidine-1-carboxylate], the IC50 was more than 1000 nM.

Take `Cn1cc(-c2cnc(N)c(C(=O)N[C@@H]3CCN(C(=O)c4ccc(-c5ccc(/C=C/C(=O)O)cc5)cc4)C3)c2)cn1` [Example 677, (R,E)-3-(4′-(3-(2-amino-5-(1-methyl-1H-pyrazol-4-yl)nicotinamido)pyrrolidine-1-carbonyl)-[1,1′-biphenyl]-4-yl) acrylic acid]: the IC50 was 10 to 100 nM.

With `CC(O)c1ccc(-c2ccc(C(=O)N3CC[C@@H](NC(=O)c4cc(-c5cnn(C)c5)cnc4N)C3)cc2)s1` (stereo partly drawn) [Example 542, 2-amino-N-((3R)-1-(4-(5-(1-hydroxyethyl)thiophen-2-yl)benzoyl)pyrrolidin-3-yl)-5-(1-methyl-1H-pyrazol-4-yl)nicotinamide], the IC50 lay in the range of 100 to 1000 nM.

As for `CN1CCN(Cc2ccc(-c3cnc(N)c(C(=O)N[C@@H]4CCN(C(=O)Oc5ccccc5)C4)c3)cc2)CC1` [Example 118, phenyl (R)-3-(2-amino-5-(4-((4-methylpiperazin-1-yl)methyl)phenyl)nicotinamido)pyrrolidine-1-carboxylate], the IC50 was in the range of 100 to 1000 nM.

Regarding `Cn1cc(-c2cnc(N)c(C(=O)N[C@@H]3CCN(C(=O)c4ccc5[nH]c6c(c5c4)CCC6)C3)c2)cn1` [Example 503, (R)-2-amino-5-(1-methyl-1H-pyrazol-4-yl)-N-(1-(1,2,3,4-tetrahydrocyclopenta[b]indole-7-carbonyl)pyrrolidin-3-yl)nicotinamide], the IC50 is more than 1000 nM.

The compound `Nc1ncc(-c2ccc(CN3CCC(O)CC3)cc2)cc1C(=O)N[C@@H]1CCN(C(=O)Nc2cccc(-c3ccccc3)c2)C1` [Example 39, (R)—N-(1-([1,1′-biphenyl]-3-ylcarbamoyl)pyrrolidin-3-yl)-2-amino-5-(4-((4-hydroxypiperidin-1-yl)methyl)phenyl)nicotinamide] gave an IC50 of 10 to 100 nM.

The values above are taken from patent US12378224B2 (Dong-A Socio Holdings Co., Ltd., priority 2016, dated 2025).
